Results: patent US20100210713A1, “REGENERATION AND SURVIVAL OF CARDIAC PROGENITORS AND CARDIOMYOCYTES WITH A STRETCH ACTIVATED TRANSCRIPTION FACTOR” (THE GENERAL HOSPITAL CORPORATION, priority 2009, published 2010)
“Also recorded” adds a separate entry of the source.

Legend:
[1] = test system: Creb312; test: Formation of nuclear Creb312 in Ad.Creb312(FL)-transduced NRVM under biaxial mechanical stretch after pathway inhibition (immunoblot); format: cell-based, rat; details: NRVM with Ad.Creb312(FL), inhibitor 30 min prior to 10% pulsary (cyclic) biaxial stretch, Akt1/2 inhibitor 1 μM, SH6 10 μM, LY294002 10 μM, PD98059 25 μM, U0126 10 μM, SP600125 10 μM, PP2 1 μM, SB203580 25 μM, wortmannin 200 nM, FIG. 5
Protocol: Biaxial mechanical stretch experiments. Freshly isolated NRVM were seeded at 10^6 on fibronectin-coated silicon membranes and transduced with Ad.Creb312(FL) 48 h later. 2 days later, biaxial mechanical stretch experiments were carried out on devices as previously described (Ref, Andre Kleber paper) for indicated times. Cells were rinsed once in ice-cold PBS, harvested, lysed and processed for immunoblot. For inhibition experiments, NRVM were treated with chemical inhibitors for 30 min prior to stretching. All chemical inhibitors used were from Calbiochem except Akt1/2 inhibitor and wortmannin (Sigma). Concentrations used were: Akt1/2 inhibitor (1 μM), SH6 (10 μM), LY294002 (10 μM), PD98059 (25 μM), U0126 (10 μM), SP600125 (10 μM), PP2 (1 μM), SB203580 (25 μM), wortmannin (200 nM). […]
Immunoprecipitation and Immunoblot. For immunoprecipitation, 10 μg pcDNA3/3xFlag-Creb312(N) were transfected into COS7 cells with Fugene HD (Roche). 48 h later, cells were washed once with PBS, harvested and lysed in 50 mM Tris-HCl pH 7.4, 150 mM NaCl, 1% Triton X-100 and Complete Protease Inhibitor (Roche) on ice. After centrifugation at 13000 rpm, 30 min, 4C, the supernatant was used for subsequent experiments. Embryonic hearts of various stages were homogenized in ice-cold PBS with a Rotor-Stator Homogenizer, and nuclear extracts were prepared from the cell pellets using the NE-PER Nuclear and Cytoplasmic Extraction Reagents (Pierce). Protein concentrations were determined with the Protein Assay Dye Reagent (Bio-Rad). 1.8 mg 3× Flag-Creb312(N) protein extract and 25 μg heart nuclear extract were rotated with 40 μl anti-Flag M2 Affinity gel (Sigma) at 4C over night. Resins were washed twice each with 50 mM Tris-HCl pH 7.4, 150 mM NaCl with or without 0.1% Triton X-100, eluted with 15 μg 3× Flag peptide (Sigma), and 25 μl or 75 μl eluate were loaded on 10% SDS-polyacrylamide gels for subsequent immunoblot analysis. For immunoblots of mechanical stretch- or chemically treated-cardiomyocytes, 25 μg total cell extract were separated on 10% SDS-polyacrylamide gels. Primary antibodies used were: anti-Flag M2 (Sigma, 1:200), anti-HA (Bethyl, 1:4000), anti-Creb312 (1:2000), anti-phospho (Ser473)Akt (Cell Signaling, 1:1000), anti-phospho (Thr308)Akt (Cell Signaling, 1:1000), anti-Akt (Cell Signaling, 1:1000), anti-phospho p44/42 (Cell Signaling, 1:1000). Secondary antibodies (horseradish peroxidase-conjugated rabbit anti-mouse IgG or goat anti-rabbit IgG, Dako) were used at 1:10^5′ and immunoblots were developed with SuperSignal West Femto Substrate (Pierce).

[2] = test system: Creb312; test: Proteolytic cleavage of HA-tagged full-length Creb312 to the nuclear form in NRVM after chemical ER stressors or hypertrophic agonists (Western Blot, anti-HA); format: cell-based, rat
Protocol: Isolation of neonatal rat ventricular cardiomyocytes. All procedures described below were conducted according to the guidelines of the Harvard University Animal Care and Use Committee. Ventricular myocytes were isolated from 2 day-old Sprague Dawley rats as briefly described. Excised ventricular tissue was agitated in a 0.1% trypsin solution cooled to 4° C. for approximately 14 hours. Trypsinized ventricles were dissociated into their cellular constituents via serial exposure to a 0.1% solution of collagenase type II at 37° C. for 2 minutes. The myocyte portion of the cell population was enriched by passing the dissociated cell solution through a nylon mesh with 40 μm pores, and then pre-plating twice for 45 minutes each time. 10^6 isolated myocytes were seeded onto silicon membranes coated with fibronectin in culture medium consisting of M199 base supplemented with 10% heat-inactivated Fetal Bovine Serum, 10 mM HEPES, 20 mM glucose, 2 mM L-glutamine, 1.5 ? M vitamin B-12, and 50 U/ml penicillin. On the second day of culture, the serum concentration of the medium was reduced to 2%, and the medium was changed every 48 hours thereafter.
Adenovirus preparation and infection. Replication-defective recombinant adenoviruses expressing GFP and either HA-Creb312(FL) or HA-Creb312(N) under the control of CMV in bicistronic cassettes were generated using the AdEasy XL system (Stratagene). Briefly, HA-Creb312(FL) or HA-Creb312(N) were subcloned into the adenovirus shuttle vector pAdTrack-CMV (generous gift by Bert Vogelstein, Ref), and these constructs used for the generation of Ad.Creb312(FL) or Ad.Creb312(N), respectively, according to manufacturer's instructions. Adenoviral shuttle constructs for the expression of miRNAs against rat ILK, rat FAK, rat Creb312 under the control of hCMV were obtained by subcloning the XbaI/HindIII fragments of the respective miRNA expression constructs in pcDNA6-GW/EmGFP-miR (Invitrogen) into pShuttle (Stratagene). The recombinant adenoviruses were concentrated and purified by CsCl gradient ultracentrifugation, and the virus titer was determined through plaque assay.
NRVM were transduced with adenovirus at 5 moi (multiplicity of infection) in serum-free M199 for 90 min and maintained for 48 h in M-199/2% FCS before mechanical stretch, hypoxia experiments or treatment with chemicals.
Treatment with chemical ER stressors, cardiac hypertrophic agonists, hypoxic stress. 5×10^5 NRVM were plated in 6 well plates, transduced with Ad.Creb312(FL) and treated 48 h afterwards with tunicamycin (Tm), thapsigargin (Tg), brefeldin A (BFA) or DTT (1 mM) for 30 min and harvested for immunoblot analyses. Alternatively, NRVM were treated with phenylephrine, angiotensin II, endothelin or isoproterenol for 24 h. For hypoxic stress, 5×10^5 NRVM were plated in 6 well plates and switched from 20% O2/5% CO2 to 0.1% O2/5% CO2 for the indicated times.
Immunoprecipitation and Immunoblot. For immunoprecipitation, 10 μg pcDNA3/3xFlag-Creb312(N) were transfected into COS7 cells with Fugene HD (Roche). 48 h later, cells were washed once with PBS, harvested and lysed in 50 mM Tris-HCl pH 7.4, 150 mM NaCl, 1% Triton X-100 and Complete Protease Inhibitor (Roche) on ice. After centrifugation at 13000 rpm, 30 min, 4C, the supernatant was used for subsequent experiments. Embryonic hearts of various stages were homogenized in ice-cold PBS with a Rotor-Stator Homogenizer, and nuclear extracts were prepared from the cell pellets using the NE-PER Nuclear and Cytoplasmic Extraction Reagents (Pierce). Protein concentrations were determined with the Protein Assay Dye Reagent (Bio-Rad). 1.8 mg 3× Flag-Creb312(N) protein extract and 25 μg heart nuclear extract were rotated with 40 μl anti-Flag M2 Affinity gel (Sigma) at 4C over night. […]

[3] = test system: BNP promoter region; test: BNP promoter regulated luciferase gene expression assay; format: cell-based; details: for BNP regulated luciferase gene expression: 10 ng DNA
Description: (§1) FIGS. 8A-8D show the nuclear form of Creb312 activates BNP regulated luciferase gene expression.

[4] = test system: ANF promoter region; test: ANF promoter regulated luciferase gene expression assay; format: cell-based; details: 700 bp promoter region of ANF; 50 ng DNA; FIG. 8B
Description: as §1

[5] = NRVM transduced with Ad.Creb312(FL), ER stress-inducing chemicals, within one hour, Western Blot anti-HA
[6] = NRVM expressing HA-Creb312(FL), 24 h exposure to hypertrophic agonists, FIG. 4D

`O=c1[nH]c2ccccc2n1C1CCN(Cc2ccc(-c3nc4cc5[nH]cnc5cc4nc3-c3ccccc3)cc2)CC1` [Akt1/2] was tested, and the “effect on formation of the proteolytically cleaved, nuclear form of Creb312 in response to mechanical stretch” value (“effect on formation” below) [1] was “complete ablation” and the “effect on formation” value ([1]; listed as Akt1/2 Inh) was “completely inhibited”.

In the case of `C/C=C(/C)C(=O)O[C@H]1C(C)=C2[C@H]([C@@H]1OC(=O)CCCCCCC)[C@@](C)(OC(C)=O)C[C@H](OC(=O)CCC)[C@@]1(O)[C@H]2OC(=O)[C@@]1(C)O` [thapsigargin], the “proteolytic cleavage of Creb312 (formation of the nuclear form)” value (shortened to “proteolytic cleavage of Creb312”) [2, 5] is reported as “caused proteolytic cleavage of Creb312”.

In the case of `C[S+]([O-])c1ccc(-c2nc(-c3ccncc3)c(-c3ccc(F)cc3)[nH]2)cc1` (centres unmarked) [SB203580], the “effect on formation” value [1] is reported as “did not show any effect; also recorded: did not inhibit”.

In the case of `CNC[C@H](O)c1cccc(O)c1` [phenylephrine], the “proteolytic cleavage of Creb312” value [2, 6] is reported as “most strongly induced; also recorded: formation of the proteolytically cleaved, nuclear form of Creb312”.

In the case of `Oc1c2ccccc2c2c3c(cccc13)N=N2` [SP600125], the “effect on formation” value [1] is reported as “did not inhibit”.

In the case of “angiotensin-2 (DRVYIHPF; Angiotensin-2; UniProt P01019 25-32, looked up) [hypertrophic agonist]”, the “proteolytic cleavage of Creb312” value [2, 6] is reported as “formation of the proteolytically cleaved, nuclear form of Creb312”.

In the case of `C[C@H]1CCC/C=C/[C@@H]2C[C@H](O)C[C@H]2[C@H](O)/C=C/C(=O)O1` [brefeldinA], the “proteolytic cleavage of Creb312” value [2, 5] is reported as “caused proteolytic cleavage of Creb312”.

With `CCCC(=O)Nc1ncnc2c1ncn2[C@@H]1O[C@@H]2COP(=O)(O)O[C@H]2[C@H]1OC(=O)CCC` [dbcA] the “formation of nuclear Creb312 in response to cAMP treatment” value ([2]; NRVM, data not shown) was “nuclear Creb312 is formed”.

`COc1cccc(-c2cc(=O)c3ccccc3o2)c1N` [PD98059] was tested, and the “effect on formation” value [1] was “did not show any effect; also recorded: did not inhibit”.

For `CC(C)NCC(O)c1ccc(O)c(O)c1` (centres unmarked) [isoproterenol], the “proteolytic cleavage of Creb312” value [2, 6] was “most strongly induced; also recorded: formation of the proteolytically cleaved, nuclear form of Creb312”.

`CC(C)(C)n1nc(-c2ccc(Cl)cc2)c2c(N)ncnc21` [PP2] was tested, and the “effect on formation” value [1] was “did not show any effect; also recorded: did not inhibit”.

For `CC[C@H](C)[C@H](NC(=O)[C@H](CC(=O)O)NC(=O)[C@H](CC(C)C)NC(=O)[C@H](Cc1c[nH]cn1)NC(=O)[C@@H]1CSSC[C@H](N)C(=O)N[C@@H](CO)C(=O)N[C@H]2CSSC[C@H](NC(=O)[C@H](CCC(=O)O)NC(=O)[C@H](CCCCN)NC(=O)[C@H](CC(=O)O)NC(=O)[C@H](CCSC)NC(=O)[C@H](CC(C)C)NC(=O)[C@H](CO)NC(=O)[C@H](CO)NC2=O)C(=O)N[C@@H](C(C)C)C(=O)N[C@@H](Cc2ccc(O)cc2)C(=O)N[C@@H](Cc2ccccc2)C(=O)N1)C(=O)N[C@H](C(=O)N[C@@H](Cc1c[nH]c2ccccc12)C(=O)O)[C@@H](C)CC` [endothelin-1], the “proteolytic cleavage of Creb312” value [2, 6] was “formation of the proteolytically cleaved, nuclear form of Creb312”.

With tunicamycin the “proteolytic cleavage of Creb312” value [2, 5] was “to a lesser extend”.

`O[C@H](CS)[C@H](O)CS` (racemic) [DTT, dithiothreitol] was tested, and the “proteolytic cleavage of Creb312” value [2, 5] was “to a lesser extend”.

With `N#CC(=C(/N)Sc1ccccc1N)/C(C#N)=C(\N)Sc1ccccc1N` [U0126] the “effect on formation” value [1] was “did not show any effect; also recorded: did not inhibit”.

B1: Creb312(N): nuclear form of Creb312, residues 1-376 of the full length Creb312 (SEQ ID NO: 3) (protein, listed as Homo sapiens)
chain: MEVLESGEQGVLQWDRKLSELSEPGDGEALMYHTHFSELLDEFSQNVLGQLLNDPFLSEKSVSMEVEPSPTSPAPLIQAEHSYSLCEEPRAQSPFTHITTSDSFNDDEVESEKWYLSTDFPSTSIKTEPVTDEPPPGLVPSVTLTITAISTPLEKEEPPLEMNTGVDSSCQTIIPKIKLEPHEVDQFLNFSPKEAPVDHLHLPPTPPSSHGSDSEGSLSPNPRLHPFSLPQTHSPSRAAPRAPSALSSSPLLTAPHKLQGSGPLVLTEEEKRTLIAEGYPIPTKLPLSKSEEKALKKIRRKIKNKISAQESRRKKKEYMDSLEKKVESCSTENLELRKKVEVLENTNRTLLQQLQKLQTLVMGKVSRTCKLAGTQT
In the case of B1, the “BNP regulated luciferase gene expression” value ([3]; 2 kb promoter region of BNP, FIG. 8C) is reported as “induced”, the “BNP regulated luciferase gene expression” value ([3]; 135 bp promoter region of BNP, FIG. 8D) is reported as “induced” and the “fold activation of luciferase gene expression” value ([3]; (−135 to −115) BNP promoter region, 200 ng DNA, FIG. 10C) is reported as “three fold”. For the same molecule, the “ANF regulated luciferase gene expression” value [4] was “induced”.
